Reference: patent publication US20230144824A1, “1H-PYRAZOLO[4,3-d]PYRIMIDINE COMPOUNDS AS TOLL-LIKE RECEPTOR 7 (TLR7) AGONISTS” (BRISTOL-MYERS SQUIBB COMPANY, priority 2020, published 2023)
pEC50: −log10 of the molar value.

What was measured:
[1] = molecular target: T1, human TLR7 (Homo sapiens, UniProt Q9NYK1); assay: Human TLR7 agonist activity assay (HEK-Blue TLR7 SEAP reporter); assay type: cell-based; conditions: HEK-Blue TLR7 cells, 18 h treatment, average where assay performed multiple times, read-out: hTLR7 Agonism EC50
T1 construct: host or cells: HEK-Blue TLR7 cells (engineered human embryonic kidney cells)
T1 sequence (Q9NYK1 27-1049): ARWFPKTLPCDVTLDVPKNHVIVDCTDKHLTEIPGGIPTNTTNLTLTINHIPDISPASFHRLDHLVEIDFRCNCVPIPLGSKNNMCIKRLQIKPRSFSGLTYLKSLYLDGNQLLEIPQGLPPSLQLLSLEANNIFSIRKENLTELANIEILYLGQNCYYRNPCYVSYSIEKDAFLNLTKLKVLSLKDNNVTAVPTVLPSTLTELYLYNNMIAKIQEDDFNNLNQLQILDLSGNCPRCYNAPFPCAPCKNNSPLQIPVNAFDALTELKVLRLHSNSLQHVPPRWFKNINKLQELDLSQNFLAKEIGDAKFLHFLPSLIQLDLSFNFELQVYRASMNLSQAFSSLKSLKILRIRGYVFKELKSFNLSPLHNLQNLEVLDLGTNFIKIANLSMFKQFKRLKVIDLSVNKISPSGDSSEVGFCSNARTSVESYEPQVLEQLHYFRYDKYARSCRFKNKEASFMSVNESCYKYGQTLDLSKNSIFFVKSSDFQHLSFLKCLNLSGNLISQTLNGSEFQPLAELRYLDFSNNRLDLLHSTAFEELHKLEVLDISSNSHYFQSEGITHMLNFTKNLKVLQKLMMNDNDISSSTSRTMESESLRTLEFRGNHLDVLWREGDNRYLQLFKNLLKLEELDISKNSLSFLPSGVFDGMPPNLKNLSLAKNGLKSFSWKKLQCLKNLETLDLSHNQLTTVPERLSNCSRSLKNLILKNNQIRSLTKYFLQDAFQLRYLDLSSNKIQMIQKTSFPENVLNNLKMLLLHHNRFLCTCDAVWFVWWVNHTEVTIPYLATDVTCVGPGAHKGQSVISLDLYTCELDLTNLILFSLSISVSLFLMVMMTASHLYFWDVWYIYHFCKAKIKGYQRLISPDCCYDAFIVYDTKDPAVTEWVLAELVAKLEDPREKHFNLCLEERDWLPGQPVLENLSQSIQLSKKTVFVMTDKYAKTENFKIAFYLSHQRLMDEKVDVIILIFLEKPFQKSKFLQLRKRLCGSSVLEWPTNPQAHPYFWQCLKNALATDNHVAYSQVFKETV
Procedure: This procedure describes a method for assaying human TLR7 (hTLR7) agonist activity of the compounds disclosed in this specification.
HEK-Blue™ TLR7 cells were added to each well of a 384-well tissue-culture plate (15,000 cells per well) and incubated 16-18 h at 37° C., 5% CO2. Compounds (100 nl) were dispensed into wells containing the HEK-Blue™ TLR cells and the treated cells were incubated at 37° C., 5% CO2. After 18 h treatment ten microliters of freshly-prepared Quanti-Blue™ reagent (Invivogen) was added to each well, incubated for 30 min (37° C., 5% CO2) and SEAP levels measured using an Envision plate reader (OD=620 nm). The half maximal effective concentration values (EC50; compound concentration which induced a response halfway between the assay baseline and maximum) were calculated.

[2] = system: CD69; assay: Induction of CD69 in human whole blood; assay type: cell-based; conditions: Homo sapiens, 17 h, 100% set to 1 uM of resiquimod, average where assay performed multiple times, read-out: hWB CD69 EC50
Procedure: The induction of Type I interferon (IFN) MX-1 genes and the B-cell activation marker CD69 are downstream events that occur upon activation of the TLR7 pathway. The following is a human whole blood assay that measures their induction in response to a TLR7 agonist.
Heparinized human whole blood was harvested from human subjects and treated with test TLR7 agonist compounds at 1 mM. The blood was diluted with RPMI 1640 media and Echo was used to predot 10 nL per well giving a final concentration of 1 uM (10 nL in 10 uL of blood). After mixing on a shaker for 30 sec, the plates were covered and placed in a 37° C. chamber for o/n=17 hrs. Fixing/lysis buffer was prepared (5×->1× in H2O, warm at 37° C.; Cat #BD 558049) and kept the perm buffer (on ice) for later use.
For surface markers staining (CD69): prepared surface Abs: 0.045 ul hCD14-FITC (ThermoFisher Cat #MHCD1401)+0.6 ul hCD19-ef450 (ThermoFisher Cat #48-0198-42)+1.5 ul hCD69-PE (cat #BD555531)+0.855 ul FACS buffer. Added 3 ul/well, spin1000 rpm for 1 min and mixed on shaker for 30 sec, put on ice for 30 mins. Stop stimulation after 30 minutes with 70 uL of prewarmed 1× fix/lysis buffer and use Feliex mate to resuspend (15 times, change tips for each plate) and incubate at 37 C for 10 minutes.
Centrifuge at 2000 rpm for 5 minutes aspirate with HCS plate washer, mix on shaker for 30 sec and then wash with 70 uL in dPBS and pelleted 2×s (2000 rpm for 5 min) and 50 ul wash in FACS buffer pelleted 1×s (2000 rpm for 5 min). Mix on shaker for 30 sec. For Intracellular markers staining (MX-1): Add 50 ul of BD Perm buffer III and mix on shaker for 30 sec. Incubate on ice for 30 minutes (in the dark). Wash with 50 uL of FACS buffer 2×(spin @2300 rpm×5 min after perm) followed by mixing on shaker for 30 sec. Resuspended in 20 ul of FACS buffer containing MX1 antibody ( )(4812)-Alexa 647: Novus Biologicals #NBP2-43704AF647) 20 ul FACS bf+0.8 ul hIgG+0.04 ul MX-1. Spin 1000 rpm for 1 min, mix on shaker for 30 se and the samples were incubated at RT in the dark for 45 minutes followed by washing 2×FACS buffer (spin @2300 rpm×5 min after perm). Resuspend 20 ul (35 uL total per well) of FACS buffer and cover with foil and place in 4° C. to read the following day. Plates were read on iQuePlus. The results were loaded into toolset and IC50 curves are generated in curve master. The y-axis 100% is set to 1 uM of resiquimod.

| Structure (SMILES) | pEC50 [1] | pEC50 [2] |
| --- | --- | --- |
| CCCCNc1nc(N)nc2cnn(Cc3ncc(C4CCN(C(=O)CCN(C)C)CC4)cc3OC)c12 [Compound 109, 1-[4-(6-{[5-amino-7-(butylamino)-1H-pyrazolo[4,3-d]pyrimidin-1-yl]methyl}-5-methoxypyridin-3-yl)piperidin-1-yl]-3-(dimethylamino)propan-1-one] | 6.67 | 7.84 |
| CCCCNc1nc(N)nc2cnn(Cc3ncc(C4CCN(C(=O)CC(C)(C)O)CC4)cc3OC)c12 [Compound 110, 1-[4-(6-{[5-amino-7-(butylamino)-1H-pyrazolo[4,3-d]pyrimidin-1-yl]methyl}-5-methoxypyridin-3-yl)piperidin-1-yl]-3-hydroxy-3-methylbutan-1-one] | 6.46 | 6.42 |
| CCCCNc1nc(N)nc2cnn(Cc3ncc(C4CCN(C5CNC5)CC4)cc3OC)c12 [Compound 115, 1-({5-[1-(azetidin-3-yl)piperidin-4-yl]-3-methoxypyridin-2-yl}methyl)-N7-butyl-1H-pyrazolo[4,3-d]pyrimidine-5,7-diamine] | 6.35 | 7.19 |
| CCCCNc1nc(N)nc2cnn(Cc3ncc(C4CCN(C(=O)CN5CC6(CN(C)C6)C5)CC4)cc3OC)c12 [Compound 117, 1-[4-(6-{[5-amino-7-(butylamino)-1H-pyrazolo[4,3-d]pyrimidin-1-yl]methyl}-5-methoxypyridin-3-yl)piperidin-1-yl]-2-{6-methyl-2,6-diazaspiro[3.3]heptan-2-yl}ethan-1-one] | 6.07 | 6.51 |
| CCCCNc1nc(N)nc2cnn(Cc3ncc(C4CCN(C(=O)CN5C[C@@H]6C[C@H]5CN6)CC4)cc3OC)c12 [Compound 118, 1-[4-(6-{[5-amino-7-(butylamino)-1H-pyrazolo[4,3-d]pyrimidin-1-yl]methyl}-5-methoxypyridin-3-yl)piperidin-1-yl]-2-[(1S,4S)-2,5-diazabicyclo[2.2.1]heptan-2-yl]ethan-1-one] | 6.15 | 6.05 |
| CCCCNc1nc(N)nc2c(C)nn(Cc3ncc(C4CCN(C5CCOCC5)CC4)cc3OC)c12 [Compound 121, N7-butyl-1-({3-methoxy-5-[1-(oxan-4-yl)piperidin-4-yl]pyridin-2-yl}methyl)-3-methyl-1H-pyrazolo[4,3-d]pyrimidine-5,7-diamine] | 6.22 | 6.92 |
| CCCCNc1nc(N)nc2c(C)nn(Cc3ncc(C4CCN(C)CC4)cc3OC)c12 [Compound 123, N7-butyl-1-{[3-methoxy-5-(1-methylpiperidin-4-yl)pyridin-2-yl]methyl}-3-methyl-1H-pyrazolo[4,3-d]pyrimidine-5,7-diamine] | 6.31 | 7.40 |

Molecules with a higher pEC50 [1], results first:

| pEC50 [1] | pEC50 [2] | Structure (SMILES) |
| --- | --- | --- |
| 7.19 | 8.27 | CCCCNc1nc(N)nc2cnn(Cc3ncc(C4CCN(C)CC4)cc3OC)c12 [Compound 111, N7-butyl-1-{[3-methoxy-5-(1-methylpiperidin-4-yl)pyridin-2-yl]methyl}-1H-pyrazolo[4,3-d]pyrimidine-5,7-diamine] |
| 7.47 | 8.23 | CCCCNc1nc(N)nc2cnn(Cc3ncc(C4CCN(C5CCOCC5)CC4)cc3OC)c12 [Compound 112, N7-butyl-1-({3-methoxy-5-[1-(oxan-4-yl)piperidin-4-yl]pyridin-2-yl}methyl)-1H-pyrazolo[4,3-d]pyrimidine-5,7-diamine] |
| 7.33 | 8.03 | CCCCNc1nc(N)nc2cnn(Cc3ncc(C4CCN(C(C)C)CC4)cc3OC)c12 [Compound 113, N7-butyl-1-({3-methoxy-5-[1-(propan-2-yl)piperidin-4-yl]pyridin-2-yl}methyl)-1H-pyrazolo[4,3-d]pyrimidine-5,7-diamine] |
| 7.30 | 8.44 | CCCCNc1nc(N)nc2cnn(Cc3ncc(C4CCN(CCO)CC4)cc3OC)c12 [Compound 114, 2-[4-(6-{[5-amino-7-(butylamino)-1H-pyrazolo[4,3-d]pyrimidin-1-yl]methyl}-5-methoxypyridin-3-yl)piperidin-1-yl]ethan-1-ol] |
| 7.07 | 7.98 | CCCCNc1nc(N)nc2cnn(Cc3ncc(C4CCN(C5CCS(=O)(=O)CC5)CC4)cc3OC)c12 [Compound 116, 4-[4-(6-{[5-amino-7-(butylamino)-1H-pyrazolo[4,3-d]pyrimidin-1-yl]methyl}-5-methoxypyridin-3-yl)piperidin-1-yl]-1λ^6-thiane-1,1-dione] |
| 6.78 | 8.29 | CCCCNc1nc(N)nc2cnn(Cc3ncc(C4CCN(CC(N)=O)CC4)cc3OC)c12 [Compound 119, 2-[4-(6-{[5-amino-7-(butylamino)-1H-pyrazolo[4,3-d]pyrimidin-1-yl]methyl}-5-methoxypyridin-3-yl)piperidin-1-yl]acetamide] |
| 7.10 | 8.70 | CCCCNc1nc(N)nc2cnn(Cc3ncc(C4CCN(CC(=O)N(C)C)CC4)cc3OC)c12 [Compound 120, 2-[4-(6-{[5-amino-7-(butylamino)-1H-pyrazolo[4,3-d]pyrimidin-1-yl]methyl}-5-methoxypyridin-3-yl)piperidin-1-yl]-N,N-dimethylacetamide] |
| 6.71 | 7.73 | CCCCNc1nc(N)nc2c(C)nn(Cc3ncc(C4CCN(C(C)C)CC4)cc3OC)c12 [Compound 122, N7-butyl-1-({3-methoxy-5-[1-(propan-2-yl)piperidin-4-yl]pyridin-2-yl}methyl)-3-methyl-1H-pyrazolo[4,3-d]pyrimidine-5,7-diamine] |
| 6.72 | 7.24 | CCC[C@@H](CCO)Nc1nc(N)nc2cnn(Cc3ncc(C4CCNCC4)cc3OC)c12 [Compound 124, (3S)-3-[(5-amino-1-{[3-methoxy-5-(piperidin-4-yl)pyridin-2-yl]methyl}-1H-pyrazolo[4,3-d]pyrimidin-7-yl)amino]hexan-1-ol] |
| 7.24 | 7.99 | CCC[C@@H](CCO)Nc1nc(N)nc2cnn(Cc3ncc(C4CCN(CCO)CC4)cc3OC)c12 [Compound 125, (3S)-3-{[5-amino-1-({5-[1-(2-hydroxyethyl)piperidin-4-yl]-3-methoxypyridin-2-yl}methyl)-1H-pyrazolo[4,3-d]pyrimidin-7-yl]amino}hexan-1-ol] |
